Measurements: patent publication US6468560B2, “Controlled release dosage form of [R-(Z)]-α-(methoxyimino)-α-(1-azabicyclo[2.2.2]oct-3yl) acetonitrile monohydrochloride” (SmithKline Beecham p.l.c., priority 1996, dated 2002)

Test system: human patients
Assay: Administration to human patients, efficacy as a cognition enhancer
Type: in vivo
Procedure: Compound X has active doses around 5-125 microgramme (μg) (calculated as free base). It has been found through administration to human patients that efficacy as a cognition enhancer may be obtained at daily doses below 0.01 mg/kg more particularly 0.003 mg/kg and below, for example 0.0001-0.003 mg/kg, such as 0.00035-0.003 mg/kg. 0.0007-0.003 mg/kg, 0.0001-0.0007 mg/kg or 0.00035-0.002 mg/kg.

Q: With CO/N=C(\C#N)[C@H]1CN2CCC1CC2.Cl [Compound X, [R-(Z)]-α-(methoxyimino)-α-(1-azabicyclo [2.2.2]oct-3-yl)acetonitrile monohydrochloride] as the compound, how does the active doses (calculated as free base) read?
A: Its active doses is 5 to 125 µg.

Q: What about the “daily doses at which efficacy as a cognition enhancer may be obtained” value (human patients, daily dose) of the same compound?
A: The value was “below 0.01 mg/kg”.
